# Experimental data as given in patent US11186560B2, “Arthropod repellent chemicals” (The Regents of the University of California, priority 2015, dated 2021).
# Key:
# [1] = test system: mosquitoes; conditions: cited from earlier work
# [2] = test system: Drosophila melanogaster; assay: Drosophila melanogaster T-maze assay; format: in vivo; conditions: compounds at 5% concentration; average of 3 trials; negative P.I. indicates repellency
# Method: T-maze assay was used to test selected compounds. 4-7 day old starved wild-type flies of Drosophila melanogaster (20 males plus 20 females/trial) were tested. Under a chemical hood, 10 ul of solvent and 10 ul of test chemical were applied onto filter paper placed in control tubes and test tubes. The flies were loaded into the elevator of a T-maze apparatus and lowered into position where they could make a choice between the solvent tube and the test chemical tube. After allowing flies to make choice for 1 minute in dark, the elevator was closed and number of flies in each tube was counted. Preference Index (P.I.)=(#flies in test arm−#flies in control arm)/(#flies in test arm+#flies in control arm). The results presented in Table 2 report the average Preference Index from 3 independent trials.
# [3] = test system: Aedes aegypti; assay: Aedes aegypti 1-choice landing assay (heat source attractant); format: in vivo; conditions: compounds at 3% concentration; female Aedes aegypti; one heat source at 37 C. as attractant
# [4] = test system: Aedes aegypti; assay: Aedes aegypti 2-choice landing assay (two-choice heat assay); format: in vivo; conditions: compounds at 3% concentration; female Aedes aegypti; two heat sources at 37 C. as attractants; 5 minute trial
# Method: In order to test the compounds in mosquitoes, a Two-choice heat assay in Aedes aegypti was performed. A pair of heat sources were prepared using 2 hand warmers fitted into a 100×15 mm petri dish base and covered with 15×15 cm polyester netting secured round the petri dish by a pair or 8 inch plastic cable ties (Gardner Bender, Milwaukee, Wis.) coupling. Excess netting material was trimmed off round the edges of the petri dish. The treatment chemical 500 μl was added at 3% concentration directly onto the netting and the two assembled dishes were placed inside a cage of 20 female A. aegypti mosquitoes. Total numbers of mosquito landings on the net covering of each dish were counted during the assay from video recordings of the 5 minute trial. The solvent and DEET positions were alternated between runs.
# [5] = test system: Drosophila melanogaster; assay: Drosophila melanogaster 2-choice trap assay; format: in vivo; conditions: compounds at 5% concentration; 48 hours; negative P.I. indicates repellency
# Method: In a second type of assay, a Drosophila melanogaster 2-choice trap assay as described previously^4,6 was used with minor modifications. Traps were made with two 1.5 ml microcentrifuge tubes (USA Scientific) and 200 microliter pipette tips (USA Scientific), each cap contained standard cornmeal medium. T-shape piece of filter paper (Whatman #1) was impregnated with 5 ul of acetone (control) or 5 microliters of 5% test odor, diluted in acetone. Traps were placed within a petri dish (100×15 mm, Fisher) containing 10 ml of 1% agarose to provide moisture. Ten wild-type Drosophila melanogaster flies 4-7 days old were used per trial, which lasted 48 hours by which time point nearly all flies in the assays had made a choice and were counted. Preference Index (P.I.)=(number of flies in treated trap−number in control trap)/(number of flies in treated+control traps).
# [6] = test system: Aedes aegypti females; assay: Modified arm-in-cage assay; format: in vivo; conditions: 3% 4-methyl piperidine on filter paper adjoining netted landing window of glove
# From the text: FIG. […] (2a) Control and 4-MP treated gloves; (2b) Mean numbers of landings within minutes 2-5 of the assay. N=4 trials, ˜40 mosquitoes/trial.
# The identification of these compounds started with understanding the biochemical, spacial charge density and other biochemical and physical factors aside from straight chemical structure for imparting the activity with existing DEET-like chemical structure and are therefore studying just DEET-like properties there were limits in finding completely novel classes of repellents that are not structurally related to DEET. Additional properties were then added. […] Olfactory avoidance to DEET is active over a short range (˜1 cm) and mosquitoes are not repelled beyond the immediate vicinity. Therefore, a modified arm-in-cage assay was developed where a low concentration of 4-MP can be applied to filter paper pieces adjoining the netted landing window of the glove (FIG. 2a). […]
Compound,P.I. (mean preference index) [2],Average % Repellency [3],P.I. (mean preference index) [4],also measured
"CCN(CC)C(=O)c1cccc(C)c1 [DEET, N,N-Diethyl-m-toluamide]",–,–,–,Range over which olfactory avoidance is active [1]: ~1 cm
Isopropyl Quinoline,−0.17,96.36%,–,–
"c1ccc2c(c1)CCCN2 [1,2,3,4-Tetrahydroquinoline]",–,99.82%,−0.9965,P.I. (mean preference index) [5]: −0.74
CC1COC(C)(C)O1 (centres unmarked) [Propylene glycol acetone ketal],−0.09,–,–,–
"CC(C)CC1OCC(C)O1 (centres unmarked) [2-Isobutyl-4-methyl-1,3-dioxolane]",−0.3,35.92%,−0.2189,–
CC1CC=CCC1 (centres unmarked) [4-methyl cyclohexene],–,90.39%,−0.8265,–
CCN1CCCC1=O [1-Ethyl-2-pyrrolidone],–,–,–,P.I. (mean preference index) [5]: −0.12
CC1CCNCC1 [4-methyl piperidine],–,–,–,Repellency from skin-exposed net window [6]: effectively repel mosquitoes
"CCCCC1CO1 (centres unmarked) [1,2-Epoxyhexane]",−0.2,–,–,–
"C1=COCCC1 [3.4-Dihydro-2H-pyran, 3,4-Dihydro-2H-pyran]",−0.88,–,–,–
"CC1=C(O)C(=O)C(C)O1 (centres unmarked) [4-Hydroxy-2,5-Dimethyl-3(2H)-Furanone]",–,–,–,P.I. (mean preference index) [5]: −0.24
CC1CCCO1 (centres unmarked) [2-methyl tetrahydrofuran],–,29.78%,−0.1815,–
C1=COCCC1 [Dihydropyran],–,–,−0.2819,–
"CC1=CCC=CC1 [1-methyl-1,4-cyclohexadiene]",−0.76,27.01%,−0.1584,–
CCC1=C(O)C(=O)CC1 [Ethyl cyclopentenolone],–,77.44%,−0.7423,–
COC(=O)Cc1ccc(C(C)(C)C)cc1 [methyl 2-(4-tert-butylphenyl)acetate],–,–,–,P.I. (mean preference index) [5]: −0.14
